Among the test systems are A549 NSCLC; CAKI-1 renal; A498 renal; SK-MEL-5 melanoma; SF-295 CNS; KM12 colon; SF-268 CNS; EKVX NSCLC; SW-620 colon; SNB-75 CNS; HCC-2998 colon; BT-549 breast; PC-3 prostate; HCT-116 colon; MDA-N; RXF 393 renal.
Common to all, as to assay: DTP human tumour cell line panel, 48 h

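Test compounds were applied to cells in 96-well plates for 48 hours at 5 doses. TGI is the concentration that stops growth completely.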

Usually TGI stands for the concentration at which net growth stops. Read a low TGI as greater sensitivity of the cells.

As for `CC1=NC(=Cc2ccc(O)cc2)C(=O)N1n1c(-c2ccccc2)nc2ccccc2c1=O`, the TGI with A549 NSCLC, in the test with CAKI-1 renal, in the test with A498 renal, in the test on SK-MEL-5 melanoma, in the test with SF-295 CNS and with KM12 colon was over 100 µM each time. Moreover, the total growth inhibition concentration (TGI) in the test with SF-268 CNS, with EKVX NSCLC, in the test with SW-620 colon, in the test with SNB-75 CNS, in the test with HCC-2998 colon and in the test on BT-549 breast was over 100 µM in each case. Further, the TGI in the test with PC-3 prostate, in the test on HCT-116 colon and with MDA-N was over 100 µM in each case.

As for `CCOC(=O)CC1c2ccc(O)cc2OC(=O)C1c1ccc([N+](=O)[O-])cc1` (stereo not drawn), the TGI with A549 NSCLC was over 100 µM; in the test with CAKI-1 renal, 94.5 µM; with A498 renal it was 89.1 µM; in the test with SK-MEL-5 melanoma, 29 µM; in the test on SF-295 CNS, over 100 µM; in the test on KM12 colon it was 97.8 µM. Moreover, the TGI was over 100 µM with SF-268 CNS; over 100 µM in the test with EKVX NSCLC; over 100 µM with SW-620 colon; 56 µM in the test with SNB-75 CNS; 60.6 µM in the test on HCC-2998 colon; 64.4 µM with RXF 393 renal. In addition, the results for the TGI in the test on PC-3 prostate, in the test on HCT-116 colon and with MDA-N were 67.2 µM, 82.3 µM and 93.5 µM, respectively.

As for `COc1ccc2c(c1)CCc1c-2[nH]c2ccc(OC)cc12`, the concentration for total growth inhibition (TGI) with A549 NSCLC, in the test with CAKI-1 renal, in the test with A498 renal, in the test with SK-MEL-5 melanoma, with SF-295 CNS and in the test on KM12 colon was over 100 µM in each case. Also, the concentration for total growth inhibition (TGI) with SF-268 CNS, in the test on EKVX NSCLC, in the test on SW-620 colon, in the test on SNB-75 CNS, with HCC-2998 colon and with BT-549 breast was over 100 µM each time. Also, the TGI in the test on PC-3 prostate, in the test with HCT-116 colon and in the test with MDA-N was over 100 µM throughout.

`CSC1=C(SC)SC(=C2SC3=C(SC(=C4SCCS4)S3)S2)S1`: the TGI with A549 NSCLC, with CAKI-1 renal, in the test with SK-MEL-5 melanoma, with SF-295 CNS, in the test on KM12 colon and with SF-268 CNS was over 100 µM throughout. The TGI in the test with EKVX NSCLC, with SW-620 colon, in the test with SNB-75 CNS, in the test with HCC-2998 colon, in the test with BT-549 breast and with PC-3 prostate was over 100 µM throughout. For the same molecule, the concentration for total growth inhibition (TGI) with HCT-116 colon and in the test on MDA-N was over 100 µM each time.

As for `CC(=O)Oc1ccccc1-c1cc2ccccc2oc1=O`, the concentration for total growth inhibition (TGI) in the test with A549 NSCLC, in the test on A498 renal, with SF-295 CNS, in the test with KM12 colon, with SF-268 CNS and in the test with EKVX NSCLC was over 100 µM throughout. Besides, the TGI in the test on SW-620 colon, in the test with SNB-75 CNS, in the test with HCC-2998 colon, in the test on BT-549 breast, in the test with PC-3 prostate and in the test with HCT-116 colon was over 100 µM in each case. This molecule also showed a TGI with MDA-N of over 100 µM.

For the molecule `COc1ccc(C[N+]23C(CC[C@H]2c2ccccc2)CC[C@H]3c2ccccc2)cc1` (stereo partly drawn), the total growth inhibition concentration (TGI) with A549 NSCLC is over 100 µM; in the test on CAKI-1 renal, over 100 µM; with A498 renal, over 100 µM; in the test with SK-MEL-5 melanoma it was 15.7 µM; in the test on SF-295 CNS it was 61.7 µM; in the test with KM12 colon, 24.4 µM. The TGI in the test on SF-268 CNS is over 100 µM; in the test on EKVX NSCLC it was 69.8 µM; with SW-620 colon it was over 100 µM; in the test on SNB-75 CNS, 54.1 µM; in the test on RXF 393 renal, 35.3 µM; with PC-3 prostate, 92.1 µM. Also, the TGI in the test on HCT-116 colon was over 100 µM; with MDA-N it was 65.4 µM.

As to `CCOC(=O)c1nc2c(Cl)c3ncccc3cc2[nH]c1=O`, the TGI is over 100 µM in the test with A549 NSCLC; over 100 µM in the test on CAKI-1 renal; over 100 µM with A498 renal; 22.7 µM in the test on SK-MEL-5 melanoma; over 100 µM in the test on SF-295 CNS; over 100 µM in the test with KM12 colon. Moreover, the concentration for total growth inhibition (TGI) with SF-268 CNS is over 100 µM; in the test on EKVX NSCLC, over 100 µM; in the test with SW-620 colon, over 100 µM; with SNB-75 CNS, over 100 µM; in the test on HCC-2998 colon it was 43.8 µM; with RXF 393 renal, over 100 µM. Besides, the figures for the concentration for total growth inhibition (TGI) in the test with BT-549 breast, in the test with PC-3 prostate and in the test on HCT-116 colon were 94.7 µM, over 100 µM and over 100 µM, respectively.

Turning to `CCOC(=O)C1=C(Nc2cccc(OC)c2)OCC1=O`, the concentration for total growth inhibition (TGI) in the test on CAKI-1 renal, in the test on A498 renal, with SK-MEL-5 melanoma, with SF-295 CNS, with KM12 colon and in the test on SF-268 CNS was over 100 µM throughout. Also, the total growth inhibition concentration (TGI) in the test on EKVX NSCLC, in the test on SW-620 colon, with SNB-75 CNS, with HCC-2998 colon, in the test on RXF 393 renal and in the test with PC-3 prostate was over 100 µM in each case. The TGI with HCT-116 colon is over 100 µM.

Consider `COc1ccc2c(c1)CC[C@@H]1[C@@H]2CC[C@]2(C)C(=O)/C(=C/c3ccc(OC)c(OC)c3)C[C@@H]12`, for which the TGI with A549 NSCLC, in the test with CAKI-1 renal, with A498 renal, in the test on SK-MEL-5 melanoma, in the test on SF-295 CNS and in the test with KM12 colon was over 100 µM each time. The TGI in the test with EKVX NSCLC, in the test on SW-620 colon, in the test on SNB-75 CNS, in the test with HCC-2998 colon, in the test on RXF 393 renal and with BT-549 breast was over 100 µM throughout. In addition, the TGI with PC-3 prostate and with HCT-116 colon was over 100 µM each time.

For `CC1(C#N)CC(C)(C)C(/C=C2/CC(C)(C)C(/C=C3/OC(=N)CC3(C)C)=N2)=N1` (stereo not drawn), the concentration for total growth inhibition (TGI) is over 100 µM with A549 NSCLC; over 100 µM with CAKI-1 renal; 37.8 µM in the test with A498 renal; 32.4 µM in the test on SK-MEL-5 melanoma; 60.9 µM with SF-295 CNS; 56.2 µM in the test with KM12 colon. For the same molecule, the TGI with SF-268 CNS is over 100 µM; in the test on EKVX NSCLC, 51.6 µM; in the test with SW-620 colon it was over 100 µM; in the test with SNB-75 CNS, over 100 µM; with HCC-2998 colon, 93.3 µM; in the test with RXF 393 renal, 44.5 µM. Further, the TGI in the test on PC-3 prostate is over 100 µM; in the test on HCT-116 colon, over 100 µM; with MDA-N it was 92.1 µM.

Source of the values: PubChem BioAssay (NCI).
